Experimental data from the NIST ThermoML archive (doi:10.1016/j.jct.2014.07.022).

Assay: xn = mol fraction of the nth substance listed
Details: Gas, Spherical resonator

[C-]#[O+] [carbon monoxide] + N#N
Details	speed of sound [m/s]
273.04 K, 5000 kPa, x1 = 0.04999	345.57
273.04 K, 7995 kPa, x1 = 0.04999	354.43
273.05 K, 99 kPa, x1 = 0.04999	336.94
273.05 K, 995 kPa, x1 = 0.04999	337.99
273.05 K, 2997 kPa, x1 = 0.04999	341.18
273.05 K, 3989 kPa, x1 = 0.04999	343.2
273.05 K, 5997 kPa, x1 = 0.04999	348.21
273.05 K, 6998 kPa, x1 = 0.04999	351.18
273.11 K, 1992 kPa, x1 = 0.04999	339.44
273.16 K, 996 kPa, x1 = 0.1002	338.03
273.17 K, 1993 kPa, x1 = 0.1002	339.46
273.17 K, 2993 kPa, x1 = 0.1002	341.21
273.17 K, 4989 kPa, x1 = 0.1002	345.57
273.17 K, 6000 kPa, x1 = 0.1002	348.25
273.18 K, 3997 kPa, x1 = 0.1002	343.25
273.18 K, 6994 kPa, x1 = 0.1002	351.2
273.18 K, 8019 kPa, x1 = 0.1002	354.55
273.18 K, 8970 kPa, x1 = 0.1002	357.95
273.2 K, 9955 kPa, x1 = 0.1002	361.78
273.24 K, 9010 kPa, x1 = 0.04999	358.19
273.24 K, 9993 kPa, x1 = 0.04999	361.99
324.94 K, 117 kPa, x1 = 0.1002	367.62
324.94 K, 5998 kPa, x1 = 0.1002	381.69
324.94 K, 10006 kPa, x1 = 0.1002	394.85
324.95 K, 1001 kPa, x1 = 0.1002	369.33
324.95 K, 3002 kPa, x1 = 0.1002	373.73
324.95 K, 3998 kPa, x1 = 0.1002	376.19
324.95 K, 8963 kPa, x1 = 0.1002	391.17
324.96 K, 1989 kPa, x1 = 0.1002	371.42
324.96 K, 5002 kPa, x1 = 0.1002	378.87
324.96 K, 6999 kPa, x1 = 0.1002	384.73
324.96 K, 7996 kPa, x1 = 0.1002	387.92
324.99 K, 8000 kPa, x1 = 0.04999	387.94
325 K, 1002 kPa, x1 = 0.04999	369.31
325 K, 1991 kPa, x1 = 0.04999	371.4
325.01 K, 99 kPa, x1 = 0.04999	367.57
325.01 K, 3003 kPa, x1 = 0.04999	373.73
325.01 K, 4998 kPa, x1 = 0.04999	378.87
325.03 K, 3999 kPa, x1 = 0.04999	376.21
325.03 K, 5995 kPa, x1 = 0.04999	381.72
325.05 K, 9002 kPa, x1 = 0.04999	391.36
325.13 K, 10001 kPa, x1 = 0.04999	394.94
325.23 K, 7007 kPa, x1 = 0.04999	384.9
